According to patent US5126359A, “Substituted bisazoles and their use as medicaments” (Bayer Aktiengesellschaft, priority 1988, dated 1992):
Values after ≈ are worked out from the molar mass of the structure shown.

Experiments:
[1] = system: Torulopsis glabrata; test: Antimycotic in vitro activity, serial dilution test (MIC), Torulopsis glabrata; type: cell-based; details: Nakaseomyces glabratus; Meat extract-dextrose broth; 28° to 37° C.; 24 to 48 hours
Method: (§1) The in vitro tests were carried out in a serial dilution test using inocula of microorganisms of on average 5×10^3 to 10^4 microorganisms/ml of substrate. The nutrient medium used was (b) for yeasts: Meat extract-dextrose broth. The incubation temperature was 28° to 37° C., and the incubation period was 24 to 48 hours with yeasts and 96 hours with Dermatophytes and hyphomycetes.

[2] = system: Candida; test: Antimycotic in vivo activity (oral) in mouse candidosis; design: species or system mouse (SPF-CF1); details: 10 to 100 mg/kg; for action in mouse candidosis, in words / Action (oral) in mouse candidosis: 6th day p.i.; for Action (oral) in mouse candidosis: one hour before and seven hours after infection; for surviving on the 6th day p.i.: untreated control about 5% survival
Method: Mice of the SPF-CF1 type were infected intravenously with 1-2×10^6 exponentially growing Candida cells which are suspended in physiological saline solution. One hour before and seven hours after infection, the animals are treated orally in each case with 10 to 100 mg/kg of body weight of the preparation. Untreated animals died on the 3rd to 6th day post-infection. The survival rate on the 6th day post-infection was about 5% in untreated control animals.

[3] = system: dermatophytes, Hyphomycetes and yeasts; test: Antimycotic in vitro activity, serial dilution test, overall comparison with the prior art; type: cell-based; details: in words
Method: (§2) The in vitro tests were carried out in a serial dilution test using inocula of microorganisms of on average 5×10^3 to 10^4 microorganisms/ml of substrate. The nutrient medium used was
(§3) (a) for dermatophytes and Hyphomycetes: Kimmig's test medium
Meat extract-dextrose broth.
(§4) The incubation temperature was 28° to 37° C., and the incubation period was 24 to 48 hours with yeasts and 96 hours with Dermatophytes and hyphomycetes.

[4] = system: Trichophyton mentagr.; test: Antimycotic in vitro activity, serial dilution test (MIC), Trichophyton mentagrophytes; type: cell-based; details: Kimmig's test medium, 28° to 37° C., 96 hours
Method: as §2, §3, §4

[5] = system: Candida albicans; test: Antimycotic in vitro activity, serial dilution test (MIC), Candida albicans; type: cell-based; details: Meat extract-dextrose broth, 28° to 37° C., 24 to 48 hours
Method: as §1

[6] = system: Aspergillus fumigatus; test: Antimycotic in vitro activity, serial dilution test (MIC), Aspergillus fumigatus; type: cell-based; details: Kimmig's test medium, 28° to 37° C., 96 hours
Method: as §2, §3, §4

[7] = system: Trichophyton mentagrophytes; test: Antimicrobial in vivo activity (topical) in the experimental guinea-pig trichophytosis model; design: species or system guinea-pig (Pirbright white); details: 1 × daily, 0.1% strength solution, from 3rd day
Method: White guinea-pigs of the Pirbright white strain are infected on the shaven, non-scarified back with a micro- and macroconidia suspension of Trichophyton mentagrophytes. The infected animals were treated topically 1 × daily with a 0.1% strength solution of the preparation according to the invention (in dimethyl sulphoxide: glycerol=1.4) beginning with the 3rd day. In untreated animals, the typical picture of a dermatophytosis with reddening, scaling and hair loss up to total integumental defect of the infection site developed within 12 days p.i.

Compound	MIC [1]	MIC [4]	MIC [5]	MIC [6]	action in mouse candidosis, in words [2]	Action (oral) in mouse candidosis [2]	surviving on the 6th day p.i. [2]	antimycotic action compared with compounds (A) and (B) known from the prior art [3]	action in guinea-pig trichophytosis, in words [7]
OC(Cn1cncn1)(Cn1cncn1)c1cccc(Cl)c1 [(A), reference compound]	> 64 µg/mL	32 µg/mL (≈ 105 µM)	> 64 µg/mL	> 64 µg/mL	–	–	–	–	–
OC(Cn1cncn1)(c1ccccc1)C1(n2cnc(Cl)n2)CC1 (stereo not shown) [Example 6, 1-[1-(3-Chloro-1,2,4-triazol-1-yl)-cyclopropyl]-1-phenyl-2-(1,2,4-triazol-1-yl)-ethan-1-ol]	> 64 µg/mL	8 µg/mL (≈ 24.2 µM)	32 µg/mL (≈ 96.7 µM)	16 µg/mL (≈ 48.4 µM)	good to very good action	+++++ (very good action = 90% surviving on the 6th day p.i.)	> 80%	better antimycotic action than the compounds (A) and (B)	good action
OC(Cn1cncn1)(Cn1cncn1)c1ccccc1 [(B), reference compound]	> 64 µg/mL	64 µg/mL (≈ 237 µM)	64 µg/mL (≈ 237 µM)	> 64 µg/mL	–	–	–	–	–
OC(Cn1cncn1)(c1ccc(F)cc1F)C1(n2cnc(Cl)n2)CC1 (stereo not shown) [Example 10, 1-[1-(3-Chloro-1,2,4-triazol-1-yl)-cyclopropyl]-1-(2,4-difluorophenyl)-2-(1,2,4-triazol-1-yl)-ethan-1-ol]	> 64 µg/mL	16 µg/mL (≈ 43.6 µM)	32 µg/mL (≈ 87.3 µM)	16 µg/mL (≈ 43.6 µM)	good to very good action	+++++ (very good action = 90% surviving on the 6th day p.i.)	> 80%	better antimycotic action than the compounds (A) and (B)	good action

Second part, led by results:

MIC [1]	MIC [4]	MIC [5]	MIC [6]	Compound	action in mouse candidosis, in words [2]	Action (oral) in mouse candidosis [2]	surviving on the 6th day p.i. [2]	antimycotic action compared with compounds (A) and (B) known from the prior art [3]	action in guinea-pig trichophytosis, in words [7]
> 64 µg/mL	8 µg/mL (≈ 22.9 µM)	32 µg/mL (≈ 91.8 µM)	32 µg/mL (≈ 91.8 µM)	OC(Cn1cncn1)(c1ccc(F)cc1)C1(n2cnc(Cl)n2)CC1 (stereo not shown) [Example 7, 1-[1-(3-Chloro-1,2,4-triazol-1-yl)-cyclopropyl]-1-(4-fluorophenyl)-2-(1,2,4-triazol-1-yl)-ethan-1-ol]	good to very good action	+++++ (very good action = 90% surviving on the 6th day p.i.)	> 80%	better antimycotic action than the compounds (A) and (B)	–
16 µg/mL (≈ 39.3 µM)	4 µg/mL (≈ 9.83 µM)	32 µg/mL (≈ 78.6 µM)	16 µg/mL (≈ 39.3 µM)	OC(Cn1cncn1)(c1ccc(-c2ccccc2)cc1)C1(n2cnc(Cl)n2)CC1 (stereo not shown) [Example 9, 1-(4-Biphenyl)-1-[1-(3-chloro-1,2,4-triazol-1-yl)-cyclopropyl]-2-(1,2,4-triazol-1-yl)-ethan-1-ol]	–	–	–	better antimycotic action than the compounds (A) and (B)	–
> 64 µg/mL	16 µg/mL (≈ 43.6 µM)	16 µg/mL (≈ 43.6 µM)	64 µg/mL (≈ 175 µM)	OC(Cn1cncn1)(c1ccc(F)c(F)c1)C1(n2cnc(Cl)n2)CC1 (stereo not shown) [Example 11, 1-[1-(3-Chloro-1,2,4-triazol-1-yl)-cyclopropyl]-1-(3,4-difluorophenyl)-2-(1,2,4-triazol-1-yl)-ethan-1-ol]	good to very good action	+++++ (very good action = 90% surviving on the 6th day p.i.)	> 80%	better antimycotic action than the compounds (A) and (B)	good action
> 64 µg/mL	4 µg/mL (≈ 11.6 µM)	16 µg/mL (≈ 46.4 µM)	16 µg/mL (≈ 46.4 µM)	Cc1ccc(C(O)(Cn2cncn2)C2(n3cnc(Cl)n3)CC2)cc1 (stereo not shown) [Example 8, 1-[1-(3-Chloro-1,2,4-triazol-1-yl)-cyclopropyl]-1-(4-methylphenyl)-2-(1,2,4-triazol-1-yl)-ethan-1-ol]	–	–	–	better antimycotic action than the compounds (A) and (B)	–
> 64 µg/mL	4 µg/mL (≈ 11 µM)	8 µg/mL (≈ 21.9 µM)	32 µg/mL (≈ 87.6 µM)	OC(Cn1cncn1)(c1ccc(Cl)cc1)C1(n2cnc(Cl)n2)CC1 (stereo not shown) [Example 4, 1-(4-Chlorophenyl)-1-[1-(3-chloro-1,2,4-triazol-1-yl)-cyclopropyl]-2-(1,2,4-triazol-1-yl)-ethan-1-ol]	good to very good action	+++++ (very good action = 90% surviving on the 6th day p.i.)	> 80%	better antimycotic action than the compounds (A) and (B)	–
